# According to patent US20050037975A1, “Method for treatment of glutamate related disorders” (priority 1997, published 2005):
# Columns and labels:
# MetSOX-induced seizures = MetSOX-induced seizures in rats; assay type: in vivo
# Protocol: Animals—Male Swiss Webster mice (20-30 g) or male Sprague-Dawley rats (250-300 g) were used. All that employed animals were conducted in strict compliance with the NIH guidelines on animal use and institutional regulations concerning animal experimentation. Animals were exposed to hyperbaric oxygen in a specify designed press chamber as previously described (M. D. Faiman et al., Biochem. Pharmacol., 20, 3049-3067 (1971); M. D. Faiman et al. Aerosp. Med.,45, 29032.(1974)). The time to first clonic-tonic seizure after brining animals to a final pressure of five atmospheres of 100% oxygen or after intraperitoneal injection of convulsants was noted by. criteria outlined previously (M. D. Faiman et al. (1971), supra M. D. Faiman et al. (1974), supra). Unless otherwise specified, the ability of DETC-MeSO to prevent seizures was tested by intraperitoneal injection of 5.2 mg/kg of DETC-MeSO 1-2 hours prior to bringing the animal to a final pressure of 5 atmospheres of 100% oxygen or intraperitoneal injection of N-methyl-D-asparate (NMA) (125 mg/kg) r L-methionine sulfoximine (MetSOX) (250 mg/kg). Evaluation of the statistics for whole animal experiments or for changes in brain glutamate binding after administration of DETC-MeSO was conducted by use of the program GraphPAD InStat from Graph PAD Software (San Diego, Calif.).
# [1] = system: brain glutamate receptors (synaptic membranes); test: Glutamate binding to synaptic membranes isolated from treated mice; assay type: in vivo, mouse
# Protocol: Binding Studies—Synaptic membranes (100 μg protein) were isolated (Y. H. Lee et al., J. Neurosci. Res. 40, 797-806 (1995)) form whole brain homogenate of male Swiss Webster mice and were incubated in 0.1 mM L-glutamate for 30 minutes at 25° C. After addition of 50 nM of [^3H]glutamate, incubation was continued for an additional 45 minutes. Reactions were terminated by centrifugation at 4° C. to separate membrane-bound from free radioactivity. Nonspecific binding (radioactivity bound in the presence of 0.5 mM unlabeled glutamate) averages: 20-30% of total radioactivity bound. The rate (k) and maximum percent blockage of glutamate binding (M) by DETC-MeSO (1) during the incubation time (t) was determined by fitting the equation [% inhibition]=M(1−e^−kh) to these day by use of the program Grafit (Erithicus Software Ltd.). This equation was derived for first-order inactivation by a group specific reagent that gives a partial effect. If “A” is the percent of binding activity that remains after extensive exposure (t=of the receptor to excess DETC-MeSO, then M=100−A)e^−kh+A; substituting (100−M) for “A” and [100−% inhibition] for “a” in this equation gives the one employed for purposes of data analyses. […] A second equation was employed in the analysis of binding data that defines partial, irreversible inactivation of two distinct groups of receptors [% inhibition]=M1(1−e^−k1^IT)+M2(1−e^−k1^IT), where M1 and M2 are the maximum amount of inhibition obtained for complete modification of each receptor population and k1 and k2 are the rate constants for these modifications, respectively.
# Synaptic membranes were prepared from the brains of mice injected with DETC-MeSO (5.2 mg/kg, i.p.). The ability of synaptic membrane preparations isolated from DETC-MeSO-treated mice to bind glutamate was compared with similar preparations isolated from control animals. FIG. 3(A) illustrates the results obtained from synaptic membranes prepared from brains of mice killed two hours after a single dose of DETC-MeSO, or two hours after the last injection of multiple consecutive doses (5.2 mg/kg, i.p., daily for seven days). Either single or multiple dosing with DETC-MeSO reduced the capacity of synaptic membranes to bind glutamate by approximately 50%, the maximum effect obtained in vitro (FIG. 3). Each bar represents the average of results obtained from four animals and the error bars are for one standard deviation.
# [2] = Carbamoylation of glutathione by DETC-MeSO under physiological conditions
# Text: This rate of reaction was approximate an order of magnitude faster than that of the more familiar α-haloketone functionality.
# [3] = Plasma acetaldehyde determination after ethanol challenge; assay type: in vivo, rat; conditions: 10.3 mg/kg IP in polyethylene glycol 200, ethanol challenge 1 g/kg IP
# Protocol: Rats maintained as described in Ex. 4, fasted for 18 hours, were given 10.3 mg/kg of the DETC-Me SO intraperitoneally, dissolved in polyethylene glycol 200 and then challenged eight hours later with a dose of ethanol (1 g/kg; 20% v/v) also administered intraperitoneally. The rats were anesthetized with phenobarbital 30 minutes after alcohol administration and blood was taken by aortic puncture, being drawn into a heparinized syringe. Plasma acetaldehyde was determined by the method of C. O. P. Eriksson et al., Anal. Biochem., 80, 116 (1977). Plasma concentrations were determined based on a standard curve obtained with known concentrations of acetaldehyde. Control rats were treated with 1 ml/kg of polyethylene glycol 200.
smiles,measurement,setting,value
"CCN(CC)C(=O)[S+](C)[O-] (stereo not drawn) [DETC-MeSO, S-Methyl-N,N-Diethylthiolcarbamate Sulfoxide]",effect on time free of MetSOX seizures,MetSOX-induced seizures,more than doubled
same,number of animals that exhibited the effect/total number of animals in the group,MetSOX-induced seizures; MetSOX 250 mg/kg,(4/4)
same,mean time to seizure,"MetSOX-induced seizures; MetSOX 250 mg/kg, 5.2 mg/kg i.p. 1-2 hours prior, ± standard error",318 ± 60 min
same,irreversible brain glutamate receptor blockage,"[1]; 30 μmol/kg intravenous, mice",38.2±1.6%
same,reduction of capacity of synaptic membranes to bind glutamate,"[1]; 5.2 mg/kg i.p. daily for seven days, killed two hours after last injection",approximately 50%
same,inhibition of glutamate binding,"[1]; single dose 5.2 mg/kg i.p., killed 24 hours after",less inhibition
same,reduction of capacity of synaptic membranes to bind glutamate,"[1]; single dose 5.2 mg/kg i.p., killed two hours after",approximately 50%
same,rate of carbamoylation of the sulfhydryl group of glutathione (GSH),"[2]; 37° C., pH 7",10 M⁻¹ s⁻¹
same,conversion to DETC-GS,"[2]; GSH 1-6 mM, within 5 minutes",> 95%
same,DETC-MeSO remaining,"[2]; blood, GSH 1 mM, after 5 minutes",less than 5%
same,DETC-MeSO remaining,"[2]; liver, after one minute",less than 3%
same,plasma acetaldehyde,[3],approximately 900 μM
